ChEMBL document CHEMBL1146884, “Effect of lysine at C-terminus of the Dmt-Tic opioid pharmacophore” (J Med Chem, 2006)
Where a SMILES comes first, the peptide text is derived from it. [ ]: non-standard residue; d: D form. The star is where a group is joined. Dmt = Cc1cc(O)cc(C)c1C[C@H](N)C(=O)O; Tic = O=C(O)[C@@H]1Cc2ccccc2CN1; Cbz = O=C(OCc1ccccc1)*; NHBn = c1ccc(CN*)cc1; NHPh = c1ccc(N*)cc1

Experiments:
[1] = molecular target: T1, Delta-type opioid receptor (Mus musculus, UniProt P32300); experiment: Agonist activity at delta opioid receptor assessed as inhibition of electrically-evoked contraction of mouse vas deferens; type: functional, tissue-based
Mu-type opioid receptor [2] = molecular target: T2, Mu-type opioid receptor (Cavia porcellus, UniProt P97266); experiment: Agonist activity at mu opioid receptor assessed as inhibition of electrically-evoked contraction of guinea pig ileum; type: functional, tissue-based
[3] = molecular target: T1, Delta-type opioid receptor; experiment: Antagonist activity at delta opioid receptor assessed as inhibition of deltorphin-2-induced contraction of mouse vas deferens
[4] = molecular target: Delta-type opioid receptor (Rattus norvegicus, UniProt P33533); experiment: Displacement of [3H]deltorphin2 from delta opioid receptor in Sprague-Dawley rat brain P2 synaptosomal membrane
Mu-type opioid receptor [5] = molecular target: Mu-type opioid receptor (Rattus norvegicus, UniProt P33535); experiment: Displacement of [3H]DAMGO from mu opioid receptor in Sprague-Dawley rat brain P2 synaptosomal membrane
[6] = molecular target: Opioid receptors; mu & delta (Rattus norvegicus) (UniProt P33533+P33535); experiment: Selectivity for delta opioid receptor over mu opioid receptor in Sprague-Dawley rat brain P2 synaptosomal membrane
Mu-type opioid receptor [7] = molecular target: T2, Mu-type opioid receptor; experiment: Antagonist activity at mu opioid receptor assessed as inhibition of endomorphin-2-induced contraction of guinea pig ileum; type: functional, tissue-based; details: read-out: pA2 (converted)

T2 sequence (P97266 whole entry): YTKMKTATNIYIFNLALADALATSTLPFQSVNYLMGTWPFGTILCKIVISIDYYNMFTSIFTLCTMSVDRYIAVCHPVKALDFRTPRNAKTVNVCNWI
T1 sequence (P32300 whole entry): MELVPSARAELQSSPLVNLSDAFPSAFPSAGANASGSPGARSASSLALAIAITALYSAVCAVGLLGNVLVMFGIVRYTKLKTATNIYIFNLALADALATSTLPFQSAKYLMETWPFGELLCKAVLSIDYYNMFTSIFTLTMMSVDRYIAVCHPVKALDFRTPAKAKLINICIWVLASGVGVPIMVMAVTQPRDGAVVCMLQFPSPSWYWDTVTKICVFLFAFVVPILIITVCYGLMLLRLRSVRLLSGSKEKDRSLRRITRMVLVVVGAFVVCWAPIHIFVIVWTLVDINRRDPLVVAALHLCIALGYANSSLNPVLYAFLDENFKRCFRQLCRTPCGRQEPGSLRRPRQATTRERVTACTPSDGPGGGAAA
Sequence of Opioid receptors; mu & delta (Rattus norvegicus) (P33533 whole entry, looked up): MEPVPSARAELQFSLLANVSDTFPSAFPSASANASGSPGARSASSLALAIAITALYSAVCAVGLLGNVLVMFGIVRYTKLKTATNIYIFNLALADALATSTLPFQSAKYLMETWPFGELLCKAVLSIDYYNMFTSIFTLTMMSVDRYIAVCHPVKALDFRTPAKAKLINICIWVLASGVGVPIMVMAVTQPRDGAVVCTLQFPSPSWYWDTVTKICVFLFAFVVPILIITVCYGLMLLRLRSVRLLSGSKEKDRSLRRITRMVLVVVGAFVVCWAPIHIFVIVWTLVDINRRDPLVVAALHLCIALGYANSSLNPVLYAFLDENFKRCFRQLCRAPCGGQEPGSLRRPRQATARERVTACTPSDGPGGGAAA
Sequence of Opioid receptors; mu & delta (Rattus norvegicus) (P33535 whole entry, looked up): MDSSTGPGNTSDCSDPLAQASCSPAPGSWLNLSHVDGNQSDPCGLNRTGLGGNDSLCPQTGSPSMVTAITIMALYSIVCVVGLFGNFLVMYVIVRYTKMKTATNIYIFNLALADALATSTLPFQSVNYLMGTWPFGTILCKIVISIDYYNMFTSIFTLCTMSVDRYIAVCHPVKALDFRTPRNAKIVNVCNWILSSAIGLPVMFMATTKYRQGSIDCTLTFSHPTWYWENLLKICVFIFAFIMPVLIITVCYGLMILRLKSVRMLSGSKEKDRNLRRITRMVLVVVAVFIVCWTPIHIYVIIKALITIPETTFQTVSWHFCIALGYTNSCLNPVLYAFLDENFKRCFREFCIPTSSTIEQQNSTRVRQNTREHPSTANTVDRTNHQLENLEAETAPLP
Sequence of Delta-type opioid receptor (Rattus norvegicus, UniProt P33533) (P33533 whole entry): as the sequence (P33533 whole entry, looked up) above
Sequence of Mu-type opioid receptor (Rattus norvegicus, UniProt P33535) (P33535 whole entry): as the sequence (P33535 whole entry, looked up) above

## Cc1cc(O)cc(C)c1C[C@H](N)C(=O)N1Cc2ccccc2C[C@H]1C(=O)N[C@@H](CCCCNC(=O)OCc1ccccc1)c1nc2ccccc2[nH]1
[1]
  IC50: 9.05 µM
Mu-type opioid receptor [2]
  IC50: 375 nM
[3]
  Kb: > 10000 nM
[4]
  Ki: 0.64 nM
Mu-type opioid receptor [5]
  Ki: 0.37 nM

## Cc1cc(O)cc(C)c1C[C@H](N)C(=O)N1Cc2ccccc2C[C@H]1C(=O)N[C@H](CCCCNC(=O)OCc1ccccc1)c1nc2ccccc2[nH]1
[1]
  IC50: > 10 µM
Mu-type opioid receptor [2]
  IC50: 62.5 nM
[3]
  Kb: > 10000 nM
[4]
  Ki: 0.4 nM
Mu-type opioid receptor [5]
  Ki: 0.15 nM

## CC(=O)NCCCC[C@H](NC(=O)[C@@H]1Cc2ccccc2CN1C(=O)[C@@H](N)Cc1c(C)cc(O)cc1C)c1nc2ccccc2[nH]1
[1]
  IC50: > 10 µM
Mu-type opioid receptor [2]
  IC50: 53.9 nM
[4]
  Ki: 0.18 nM
Mu-type opioid receptor [5]
  Ki: 0.13 nM

## Cc1cc(O)cc(C)c1C[C@H](N)C(=O)N1Cc2ccccc2C[C@H]1C(=O)N[C@@H](CCCCN)c1nc2ccccc2[nH]1
[1]
  IC50: > 10 µM
Mu-type opioid receptor [2]
  IC50: 39.7 nM
[4]
  Ki: 0.49 nM
Mu-type opioid receptor [5]
  Ki: 0.16 nM

## Cc1cc(O)cc(C)c1C[C@H](N)C(=O)N1Cc2ccccc2C[C@H]1C(=O)NCC(=O)O (H-[Dmt]-[Tic]-Gly-OH)
[3]
  Kb: 1.41 nM
[4]
  Ki: 1.38 nM
Mu-type opioid receptor [5]
  Ki: 529 nM
[6]
  Ratio Ki: 383

## CC(=O)NCCCC[C@H](NC(=O)[C@@H]1Cc2ccccc2CN1C(=O)[C@@H](N)Cc1c(C)cc(O)cc1C)C(=O)NCc1ccccc1 (H-[Dmt]-[Tic]-Lys(Ac)-NHBn)
[1]
  IC50: > 10 µM
Mu-type opioid receptor [2]
  IC50: > 10000 nM
[3]
  Kb: 0.0398 nM
[4]
  Ki: 0.068 nM
Mu-type opioid receptor [5]
  Ki: 5.5 nM
[6]
  Ratio Ki: 81
Mu-type opioid receptor [7]
  Kb: 6.92 nM

## CC(=O)NCCCC[C@H](NC(=O)[C@@H]1Cc2ccccc2CN1C(=O)[C@@H](N)Cc1c(C)cc(O)cc1C)C(=O)Nc1ccccc1 (H-[Dmt]-[Tic]-Lys(Ac)-NHPh)
[1]
  IC50: > 10 µM
Mu-type opioid receptor [2]
  IC50: 1250 nM
[3]
  Kb: 0.001 nM
[4]
  Ki: 0.13 nM
Mu-type opioid receptor [5]
  Ki: 0.63 nM
[6]
  Ratio Ki: 5

## Cc1cc(O)cc(C)c1C[C@H](N)C(=O)N1Cc2ccccc2C[C@H]1C(=O)N[C@@H](CCCCNC(=O)OCc1ccccc1)C(=O)NCc1ccccc1 (H-[Dmt]-[Tic]-Lys(Cbz)-NHBn)
[1]
  IC50: > 10 µM
Mu-type opioid receptor [2]
  IC50: > 10000 nM
[3]
  Kb: 617 nM
[4]
  Ki: 0.31 nM
Mu-type opioid receptor [5]
  Ki: 4.41 nM
[6]
  Ratio Ki: 14
Mu-type opioid receptor [7]
  Kb: 1510 nM

## Cc1cc(O)cc(C)c1C[C@H](N)C(=O)N1Cc2ccccc2C[C@H]1C(=O)N[C@@H](CCCCNC(=O)OCc1ccccc1)C(=O)Nc1ccccc1 (H-[Dmt]-[Tic]-Lys(Cbz)-NHPh)
[1]
  IC50: > 10 µM
Mu-type opioid receptor [2]
  IC50: 438 nM
[3]
  Kb: 1700 nM
[4]
  Ki: 0.57 nM
Mu-type opioid receptor [5]
  Ki: 1.47 nM
[6]
  Ratio Ki: 3

## Cc1cc(O)cc(C)c1C[C@H](N)C(=O)N1Cc2ccccc2C[C@H]1C(=O)N[C@@H](CCCCN)C(=O)NCc1ccccc1 (H-[Dmt]-[Tic]-Lys-NHBn)
[1]
  IC50: > 10 µM
Mu-type opioid receptor [2]
  IC50: > 10000 nM
[3]
  Kb: 977 nM
[4]
  Ki: 0.5 nM
Mu-type opioid receptor [5]
  Ki: 4.05 nM
[6]
  Ratio Ki: 8
Mu-type opioid receptor [7]
  Kb: 11 nM

## Cc1cc(O)cc(C)c1C[C@H](N)C(=O)N1Cc2ccccc2C[C@H]1C(=O)N[C@@H](CCCCN)C(=O)Nc1ccccc1 (H-[Dmt]-[Tic]-Lys-NHPh)
[1]
  IC50: > 10 µM
Mu-type opioid receptor [2]
  IC50: 1250 nM
[3]
  Kb: 4170 nM
[4]
  Ki: 0.42 nM
Mu-type opioid receptor [5]
  Ki: 0.93 nM
[6]
  Ratio Ki: 2
